Source: ChEMBL document CHEMBL1127850

Columns and labels:
[1] = biological target: D(1A) dopamine receptor (Rattus norvegicus) (UniProt P18901); assay: Tested for its affinity towards Dopamine receptor D1 in rat striatal membrane; type: cell membranes; conditions: Striatum
Rattus norvegicus = organism: Rattus norvegicus; assay: Tested effective dose for maximal stimulation of adenylate cyclase in rat striatal membrane; type: functional; conditions: Striatum
[2] = biological target: D(1A) dopamine receptor (Rattus norvegicus) (UniProt P18901)
[3] = biological target: D(2) dopamine receptor (Homo sapiens) (UniProt P14416)
D(2) dopamine receptor (Homo sapiens), sequence (P14416 whole entry): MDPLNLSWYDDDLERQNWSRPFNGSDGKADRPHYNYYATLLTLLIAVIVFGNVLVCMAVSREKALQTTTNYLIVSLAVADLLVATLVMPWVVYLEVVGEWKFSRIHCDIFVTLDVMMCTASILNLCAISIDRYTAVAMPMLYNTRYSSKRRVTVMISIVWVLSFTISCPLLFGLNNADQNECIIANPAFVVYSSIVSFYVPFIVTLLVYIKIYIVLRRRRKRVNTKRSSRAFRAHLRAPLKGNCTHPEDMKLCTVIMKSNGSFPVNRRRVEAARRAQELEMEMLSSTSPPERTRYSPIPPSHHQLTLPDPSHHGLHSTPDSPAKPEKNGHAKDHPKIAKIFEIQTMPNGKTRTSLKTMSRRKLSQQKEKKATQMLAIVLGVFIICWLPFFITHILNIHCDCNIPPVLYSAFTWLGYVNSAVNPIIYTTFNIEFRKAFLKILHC
Description: Tested for binding affinity towards D2 receptor labelled by [3H]- spiperone as radioligand

D(1A) dopamine receptor (Rattus norvegicus), sequence (P18901 whole entry): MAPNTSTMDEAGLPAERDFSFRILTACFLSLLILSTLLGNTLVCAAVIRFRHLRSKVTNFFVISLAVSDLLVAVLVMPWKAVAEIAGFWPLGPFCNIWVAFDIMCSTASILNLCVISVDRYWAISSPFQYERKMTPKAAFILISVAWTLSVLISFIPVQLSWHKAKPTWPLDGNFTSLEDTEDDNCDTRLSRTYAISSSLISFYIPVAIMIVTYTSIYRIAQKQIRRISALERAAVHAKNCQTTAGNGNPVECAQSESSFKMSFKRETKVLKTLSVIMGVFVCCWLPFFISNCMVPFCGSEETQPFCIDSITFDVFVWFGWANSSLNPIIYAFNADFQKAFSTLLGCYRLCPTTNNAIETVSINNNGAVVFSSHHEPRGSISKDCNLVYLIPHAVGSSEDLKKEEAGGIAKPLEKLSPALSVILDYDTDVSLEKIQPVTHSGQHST

Compound	pD2 [1]	Stimulation (Rattus norvegicus) [%]	K0.5 [2] [nM]	K0.5 [3] [nM]
CN1Cc2ccccc2[C@@H]2c3cccc4[nH]cc(c34)C[C@H]21	6.1			
Oc1cc2c(cc1O)[C@H]1c3ccccc3CN[C@@H]1CC2 (racemic)		95	11.6	
Oc1cc2c(cc1O)[C@H]1c3ccccc3CN[C@@H]1CC2 (stereo in doubt; (+)-2)		105	5.6	87.7
Oc1cc2c(cc1O)[C@H]1c3ccccc3CN[C@@H]1CC2 (stereo in doubt; (-)-2)			149	
